Experiment [1] addresses T1, BRD4 (Mus musculus, UniProt Q9ESU6).
T1 construct: Primary cortical neurons express BRD2/3/4, with BRD2 and BRD4 being the most abundant; endogenous in cells; host or cells: primary cortical neuronal cultures (mouse)
Nature of the experiment: ChIP sequencing of BRD4 chromatin occupancy in neurons. The experiment is classed as cell-based. The procedure:
Chromatin Immunoprecipitation with Sequencing. Primary cortical neuronal cultures were washed once with PBS then fixed for 10 minutes with a 1% formaldehyde solution in PBS with protease inhibitors (Sigma #P8340) at room temperature. Fixation was quenched adding glycine to a final concentration of 0.125M (5 minutes, room temperature). 10e6 fixed cells were resuspended in 1 ml of lysis buffer (50 mM Hepes KOH, pH7.5, 140 mM NaCl, 1 mM EDTA, 10% glycerol, 0.5% NP-40, 0.25% Triton X-100) and 10 ul of protease inhibitor cocktail (PIC). Samples were rotated for 10 minutes at 4 degrees then spun at 1350 g at 4 C for 10 minutes. Pellets were resuspended in 1 ml of lysis buffer 2 (10 mM Tris-HCl pH8.0, 200 mM NaCl, 1 mM EDTA, 0.5 mM EGTA) and 10 ul PIC.). 5e6 nuclei were sonicated in lysis buffer 3 (10 mM Tris-HCl pH8.0, 100 mM NaCl, 1 mM EDTA, 0.5 mM EGTA, 0.1% Na-Deoxicholate, 0.5% N-Lauroylsarcosine) at 4 degrees for 5 cycles of 30 seconds ON/30 seconds OFF using the Diagenode bioruptor. After, 30 ul of 10% Triton-X100 was added to each sample and then spun for 15 minutes at 20,000 g at 4 degrees. Sonication efficiency was checked by running the samples on a 2% agarose gel to confirm enrichment for fragments from 200-500 bps.
Streptavidin M-280 dynabeads were blocked with 0.5% BSA solution and coupled to 7 ug of antibody (Brd4 #Ab84778, Brd2 Bethyl #A302-583A, Pol2 Ser5 #Ab5408) for at least 8 hours at 4 degrees, rotating. Antibody-coupled beads were then added to sonicated chromatin (20e6 cells for Brd2/Brd4, 10e6 for Pol2) and incubated overnight at 4 degrees. After washing the IPs eight times with wash buffer (50 mM Hepes-KOH pH7.6, 100 mM LiCl, 1 mM EDTA, 1% NP-40, 0.7% Na-Deoxycholate) and once with TE buffer (10 mM Tris-HCl, 1 mM EDTA, 50 mM NaCl), Chromatin was eluted from magnetic beads in 200 ul elution buffer ([…] Tris-HCl pH8.0, 10 mM EDTA, 1% SDS) for 45 minutes at 65 degrees. Samples were de-crosslinked overnight at 65 degrees and proteins and RNA were removed by incubating with RNAse and proteinase k. Samples were purified using the Qiagen PCR purification kit according to the manufacturers protocol.
Samples were end-repaired using the End-IT DNA End-Repair Kit (#ER0720). After 45 minutes incubation, samples were purified using the Qiagen PCR Clean up kit as described above. Samples were adenylated using a reaction mix (200 uM dATP, 1× Klenow buffer NEB2, Klenow Fragment (3′ to 5′ exo-), NEB M0212L) and incubating at 37 degrees for 30 minutes. […] Raw sequencing reads were then aligned to the mouse mm9 genome using the default settings of Bowtie (v2.2.0)87. Only uniquely mapped reads were retained, and the alignments were subsequently filtered using the SAMtools package (v0.1.19)88 to remove duplicate reads. […]

Experiment [2] concerns mTOR. Nature of the experiment: mTOR signaling in neurons (p70-S6k Thr389 phosphorylation). The format is cell-based, mouse. Here is the method: Immunoblotting. Mice were anesthetized with CO2 followed by decapitation, and the region of interest was rapidly dissected and frozen in liquid nitrogen and stored at −80° C. until further processing. Samples were sonicated at 4° C. in 1% SDS solution supplemented with protease, Trichostatin A (500 ng/ml) and PhosStop phosphatase inhibitor (Roche, Switzerland), and boiled for ten minutes. The protein concentration was determined using a BCA protein assay kit (ThermoFisherScientific, USA) according to the manufacturer's instructions. Protein samples were diluted in equal volume of 2×LDS sample buffer (Invitrogen) and supplemented with DTT to a final concentration of 200 mM (Sigma).
Additionally, there is significant agreement between genes sensitive to BET inhibition and mTOR inhibition.

With `CC(=O)N1c2ccc(-c3ccc(CN4CCCCC4)cc3)cc2[C@H](Nc2ccccc2)CC1C` (stereo in doubt) [IBET858], in experiment [1] (6 h IBET858), the “genes that lose BRD4 at the transcriptional start site” value was found to be 2226 genes and the “genes with gain of BRD4 at the transcriptional start site” value is 295 genes. In addition, the “loci with reduced occupancy of BRD4” value in experiment [1] (DIV7, 6 h IBET858) turned out to be 4756 loci. Also, in experiment [1] (day 7, 6 h IBET858), the “loci with increased occupancy of BRD4” value was found to be 1827 loci. In addition, in experiment [2], the “mTOR activity, phosphorylation of p70-S6k at Thr389” value is “significant, time-dependent decrease” and the mTOR protein levels entry is “does not affect”.

These data come from patent publication US12691124B2, “Methods of controlling and improving brain health” (ICAHN SCHOOL OF MEDICINE AT MOUNT SINAI, priority 2019, dated 2026).
